Reference: patent US9879303B2, “Chromogenic glucuronidase substrates and uses” (Glycosynth Limited, priority 2013, dated 2018)
Where a name gives a salt, the structure may show the parent alone.

Test system: E. coli clinical isolates
Test: screen of strains on agar plates (CPS ID 3 or Columbia agar)
Assay type: cell-based
Set-up: key to colour: Red, Green, Black or Purple mean strong colour; Red, Green, Black or Purple mean strong colour; Red, Green, Black or Purple mean strong colour; Red, Green, Black or Purple mean strong colour; +/− means less colour than strong; Tr means a trace of colour, less than +/−; — means no colour
Conditions: for colour: 37° C. 18 hours
Excerpt: In order to obtain a fuller picture of the sensitivity of the substrates, they were screened with 100 different clinical isolates of E. coli in a liquid medium containing FAC. The isolates were chosen at random from the Microbiology Department, Freeman Hospital, Newcastle Upon Tyne, UK. The effectiveness of the new substrates was compared with three other media which all contained indoxyl-β-D-glucuronides. One was a commercial medium, CPS ID 3 (bioMérieux SA, Lyon, France). […] This medium was employed as a control. Among the β-D-glucuronidase producing strains of E. coli there is a large variation in the quantity of the enzyme produced and it is almost certain that the CPS ID 3 medium has been rigorously optimised to allow good growth of all the target organisms and maximum expression of the target enzymes. Therefore, two indoxyl glucuronides, X-β-D-glucuronide CHA salt and Rose-β-D-glucuronide CHA salt were also tested in a simple agar medium to allow a direct comparison of the sensitivity of these Indoxyl glucuronides when used in a medium that has not been optimised for the growth of the target organism. The comparison of the results for Rose-β-D-glucuronide and the CPS ID 3 medium was of particular significance as the commercial medium also uses Rose-β-D-glucuronide for the detection of E. coli. For consistency, the four glucuronides were all chosen as their CHA salts. As already stated, it is not anticipated that the salt form is critical to their performance. Currently. X-β-D-glucuronide is often used as either the CHA salt or the sodium salt. Brenner and colleagues [K. P. Brenner et al, Appl. Environ. Microbiol., 59, 3534-3544, (1993)] found no difference in the performance of the CHA and sodium salt forms with their application using indoxyl-β-D-glucuronide, neither in respect of colour development nor in the recovery of E. coli.
The two indoxyl glucuronides used produce insoluble endpoints following hydrolysis, as does the CPS ID 3 medium. It was therefore necessary to test these two substrates on agar plates. In contrast, catechol-β-D-glucuronide (1) and DHN-β-D-glucuronide (2b) give much more soluble endpoints best suited to liquid media and were therefore tested in a broth medium. Each broth was prepared using proteose peptone (Oxoid, Basingstoke, UK) (2 g), NaCl (1 g) and FAC (100 mg) in DI water (180 mL). This mixture was autoclaved and cooled to room temperature before being dispensed into bijoux (100×1.8 mL). Catechol β-D-glucuronide CHA salt (1) or DHN-β-D-glucuronide CHA salt (2b) (60 mg) were each dissolved in water (20 mL) and filtered to sterilize before being aseptically dispensed into successive bijoux (0.2 mL) containing the broth solution. The broth/substrate solutions were then inoculated with bacterial suspensions made up to 0.5 McFarland standard (2 μL per bijoux). X-β-D-glucuronide CHA salt (Glycosynth Ltd, Warrington, UK) (10 mg) was dissolved in NMP (200 μL). Rose-β-D-glucuronide CHA salt (Glycosynth Ltd, Warrington, UK) (20 mg) was dissolved in NMP (200 μL). These solutions were then added to Columbia agar (Oxoid, Basingstoke, UK) (100 mL) and inoculated with bacterial suspensions made up to 0.5 McFarland standard (1 μL). The plates and broths were incubated at 37° C. for 18 hours in air.

[1] = 100 E. coli strains after 18 h incubation

With `O=C(O)[C@H]1O[C@@H](Oc2c[nH]c3ccc(Br)c(Cl)c23)[C@H](O)[C@@H](O)[C@@H]1O` [X-β-D-glucuronide CHA salt, 5-bromo-4-chloro-3-indolyl β-D-glucuronide] the “% Sensitivity” value [1] was 79%, the Negative strains [1] was 21 and the Positive strains [1] was 79. The colour (E. coli 260262P) was “Green”, the colour (E. coli 260280Z) was “Green” and the colour (E. coli 260310H) was “Green”. The colour (E. coli 260313A) was “—”, the colour (E. coli 260316T) was “—” and the colour (E. coli 260327V) was “Green”. For the same compound, the colour (E. coli 260330Y) was “Green”, the colour (E. coli 260333P) was “—” and the colour (E. coli 260345F) was “Green”. For the same compound, the colour (E. coli 260348K) was “Green”, the colour (E. coli 260354W) was “Green” and the colour (E. coli 260364H) was “—”. The colour (E. coli 260370C) was “Green”, the colour (E. coli 260375E) was “Green” and the colour (E. coli 260390B) was “—”. The colour (E. coli 260396Z) was “Green”, the colour (E. coli 260398Q) was “Green” and the colour (E. coli 260400N) was “—”. For the same compound, the colour (E. coli 260401Q) was “Green”, the colour (E. coli 260402H) was “Green” and the colour (E. coli 260404W) was “Green”. The colour (E. coli 260405P) was “Green”, the colour (E. coli 260406A) was “—” and the colour (E. coli 260406Y) was “Green”. For the same compound, the colour (E. coli 260407F) was “Green”, the colour (E. coli 260408C) was “Green” and the colour (E. coli 260411Z) was “Green”. The colour (E. coli 260412Q) was “Green”, the colour (E. coli 260414H) was “Green” and the colour (E. coli 260415Y) was “Green”. The colour (E. coli 260416W) was “—”, the colour (E. coli 260417P) was “Green” and the colour (E. coli 260422Y) was “Green”. The colour (E. coli 260424P) was “Green”, the colour (E. coli 260425A) was “Green” and the colour (E. coli 260426F) was “Green”. The colour (E. coli 260428T) was “Green”, the colour (E. coli 260431N) was “Green” and the colour (E. coli 260432E) was “Green”. The colour (E. coli 260433H) was “Green”, the colour (E. coli 260434Y) was “Green” and the colour (E. coli 260435W) was “Green”. For the same compound, the colour (E. coli 260436P) was “Green”, the colour (E. coli 260437A) was “—” and the colour (E. coli 260438F) was “Green”. The colour (E. coli 260439C) was “Green”, the colour (E. coli 260440S) was “Green” and the colour (E. coli 260441G) was “Green”. The colour (E. coli 260458Y) was “Green”, the colour (E. coli 260459W) was “Green” and the colour (E. coli 260463D) was “Green”. For the same compound, the colour (E. coli 260464G) was “Green”, the colour (E. coli 260471B) was “—” and the colour (E. coli 260478N) was “—”. For the same compound, the colour (E. coli 260479Q) was “Green”, the colour (E. coli 260480M) was “Green” and the colour (E. coli 260481J) was “Green”. For the same compound, the colour (E. coli 260483R) was “—”, the colour (E. coli 260485D) was “Green” and the colour (E. coli 260486L) was “Green”. The colour (E. coli 260492J) was “Green”, the colour (E. coli 260494B) was “Green” and the colour (E. coli 260495R) was “—”. The colour (E. coli 260497D) was “Green”, the colour (E. coli 260502G) was “Green” and the colour (E. coli 260503Z) was “Green”. For the same compound, the colour (E. coli 260504N) was “Green”, the colour (E. coli 260505Q) was “—” and the colour (E. coli 260506E) was “Green”. For the same compound, the colour (E. coli 260508Y) was “Green”, the colour (E. coli 260509W) was “Green” and the colour (E. coli 260510R) was “Green”. For the same compound, the colour (E. coli 260511X) was “Green”, the colour (E. coli 260514G) was “—” and the colour (E. coli 260515Z) was “—”. For the same compound, the colour (E. coli 260521S) was “Green”, the colour (E. coli 260522Z) was “Green” and the colour (E. coli 260532S) was “Green”. The colour (E. coli 260533G) was “Green”, the colour (E. coli 260536Q) was “Green” and the colour (E. coli 260537E) was “—”. For the same compound, the colour (E. coli 260538H) was “—”, the colour (E. coli 260539Y) was “Green” and the colour (E. coli 260541R) was “Green”. The colour (E. coli 260545G) was “Green”, the colour (E. coli 260547N) was “Green” and the colour (E. coli 260548Q) was “Green”. The colour (E. coli 260549E) was “Green”, the colour (E. coli 260553X) was “—” and the colour (E. coli 260554D) was “Green”. The colour (E. coli 260555L) was “Green”, the colour (E. coli 260563B) was “Green” and the colour (E. coli 260564R) was “Green”. For the same compound, the colour (E. coli 260578D) was “—”, the colour (E. coli 2603121P) was “—” and the colour (E. coli 2604399E) was “Green”. For the same compound, the colour (E. coli O157 non-toxigenic) was “—” and the “colour of positive colonies” value (in words) was “green colonies”.
